Patent publication US12473290B2, “Imidazopyridazine compounds useful as modulators of IL-12, IL-23 and/or IFN alpha responses” (BRISTOL-MYERS SQUIBB COMPANY, priority 2019, dated 2025)

How the values were obtained:
[1] = Kit225 T Cell Assay, IL-23-stimulated STAT-dependent luciferase reporter; type: cell-based; conditions: Kit225 T cells, 20 ng/mL human recombinant IL-23, 5-6 hours, luciferase expression
Description: (§1) Kit225 T cells with a stably-integrated STAT-dependent luciferase reporter were plated in RPMI (Gibco) containing 10% heat-inactivated FBS (Gibco) and 100 U/mL PenStrep (Gibco). The cells were then stimulated with either 20 ng/mL human recombinant IL-23 or 200 U/mL human recombinant IFNα (PBL InterferonSource) for 5-6 hours. Luciferase expression was measured using the STEADY-GLO® Luciferase Assay System (Promega) according to the manufacturer's instructions. Inhibition data were calculated by comparison to no inhibitor control wells for 0% inhibition and non-stimulated control wells for 100% inhibition. Dose response curves were generated to determine the concentration required to inhibit 50% of cellular response (IC50) as derived by non-linear regression analysis.

[2] = tested on: IFNα Kit225 Reporter (Kit225 T cells with a stably-integrated STAT-dependent luciferase reporter, stimulated with IFNα); test: Kit225 T Cell Assay, IFNα-stimulated STAT-dependent luciferase reporter; type: cell-based; conditions: 200 U/mL human recombinant IFNα, 5-6 hours, luciferase expression
Description: as §1

Structure (SMILES) | IC50 [1] | IC50 [2]
COc1cccc2ccc(Nc3cc(NC45CC6CC(O)(CC(F)(C6)C4)C5)nn4c(C#N)cnc34)nc12 (centres unmarked) [Example 22, 6-[(3-fluoro-5-hydroxyadamantan-1-yl)amino]-8-[(8-methoxyquinolin-2-yl)amino]imidazo[1,2-b]pyridazine-3-carbonitrile] | 0.36 µM | 0.85 µM
N#Cc1cnc2c(Nc3cccc(C(F)(F)F)n3)cc(NC34CC5CC(O)(CC(O)(C5)C3)C4)nn12 [Example 20, 6-[(3,5-dihydroxyadamantan-1-yl)amino]-8-{[6-(trifluoromethyl)pyridin-2-yl]amino}imidazo[1,2-b]pyridazine-3-carbonitrile] | 0.44 µM | 0.15 µM
CN(C)c1nc(Nc2cc(N[C@@H]3CCCC[C@H]3O)nn3c(C#N)cnc23)ccc1C(=O)N1CCCC1 [Example 3, 8-{[6-(dimethylamino)-5-(pyrrolidine-1-carbonyl)pyridin-2-yl]amino}-6-{[(1R,2R)-2-hydroxycyclohexyl]amino}imidazo[1,2-b]pyridazine-3-carbonitrile] | 0.14 µM | 0.19 µM
N#Cc1cnc2c(Nc3ccc(C(=O)N4CCCC4)c(N4CCCC4)n3)cc(N[C@H]3CCCC[C@@H]3O)nn12 [Example 14, 6-{[(1S,2S)-2-hydroxycyclohexyl]amino}-8-{[6-(pyrrolidin-1-yl)-5-(pyrrolidine-1-carbonyl)pyridin-2-yl]amino}imidazo[1,2-b]pyridazine-3-carbonitrile] | 0.66 µM | 0.49 µM
N#Cc1cnc2c(Nc3ccc(C(=O)N4CCCC4)c(OCC(F)(F)F)n3)cc(N[C@@H]3CCCC[C@H]3O)nn12 [Example 4, 6-{[(1R,2R)-2-hydroxycyclohexyl]amino}-8-{[5-(pyrrolidine-1-carbonyl)-6-(2,2,2-trifluoroethoxy)pyridin-2-yl]amino}imidazo[1,2-b]pyridazine-3-carbonitrile] | 0.46 µM | 0.52 µM
CC1(C)CCCN1C(=O)c1ccc(Nc2cc(N[C@H]3CCCC[C@@H]3O)nn3c(C#N)cnc23)nc1 [Example 11, 8-{[5-(2,2-dimethylpyrrolidine-1-carbonyl)pyridin-2-yl]amino}-6-{[(1S,2S)-2-hydroxycyclohexyl]amino}imidazo[1,2-b]pyridazine-3-carbonitrile] | 0.56 µM | 0.36 µM
N#Cc1cnc2c(Nc3ccc4c(C(F)(F)F)cc(C(F)(F)F)nc4n3)cc(NC34CC5CC(O)(CC(O)(C5)C3)C4)nn12 [Example 19, 8-{[5,7-bis(trifluoromethyl)-1,8-naphthyridin-2-yl]amino}-6-[(3,5-dihydroxyadamantan-1-yl)amino]imidazo[1,2-b]pyridazine-3-carbonitrile] | 0.59 µM | 0.81 µM
N#Cc1cnc2c(Nc3ccc(C(=O)N4CCCC4)c(OCC(F)F)n3)cc(N[C@H]3CCCC[C@@H]3O)nn12 [Example 13, 8-{[6-(2,2-difluoroethoxy)-5-(pyrrolidine-1-carbonyl)pyridin-2-yl]amino}-6-{[(1S,2S)-2-hydroxycyclohexyl]amino}imidazo[1,2-b]pyridazine-3-carbonitrile] | 0.45 µM | 0.64 µM
N#Cc1cnc2c(Nc3ccc(C(=O)N4CCCC4)c(N4CC(F)C4)n3)cc(N[C@H]3CCCC[C@@H]3O)nn12 [Example 15, 8-{[6-(3-fluoroazetidin-1-yl)-5-(pyrrolidine-1-carbonyl)pyridin-2-yl]amino}-6-{[(1S,2S)-2-hydroxycyclohexyl]amino}imidazo[1,2-b]pyridazine-3-carbonitrile] | 0.65 µM | 0.82 µM
CC1(C)CCCN1C(=O)c1ccc(Nc2cc(N[C@@H]3CCCC[C@H]3O)nn3c(C#N)cnc23)nc1 [Example 16, 8-{[5-(2,2-dimethylpyrrolidine-1-carbonyl)pyridin-2-yl]amino}-6-{[(1R,2R)-2-hydroxycyclohexyl]amino}imidazo[1,2-b]pyridazine-3-carbonitrile] | 0.09 µM | 0.13 µM
CC(C)(C)C(=O)Nc1cccc(Nc2cc(NCC3CC3)nn3c(C#N)cnc23)n1 [Example 26, N-[6-({3-cyano-6-[(cyclopropylmethyl)amino]imidazo[1,2-b]pyridazin-8-yl}amino)pyridin-2-yl]-2,2-dimethylpropanamide] | 0.9 µM | 0.2 µM
CC(C)(C)C(=O)Nc1cccc(Nc2cc(N[C@@H]3CCCC[C@H]3O)nn3c(C#N)cnc23)n1 [Example 7, N-{6-[(3-cyano-6-{[(1R,2R)-2-hydroxycyclohexyl]amino}imidazo[1,2-b]pyridazin-8-yl)amino]pyridin-2-yl}-2,2-dimethylpropanamide] | 0.61 µM | 0.81 µM
CC(C)(C)Oc1nc(Nc2cc(NC3CCOCC3)nn3c(C#N)cnc23)ccc1C(=O)N1CCCC1 [Example 24, 8-{[6-(tert-butoxy)-5-(pyrrolidine-1-carbonyl)pyridin-2-yl]amino}-6-[(oxan-4-yl)amino]imidazo[1,2-b]pyridazine-3-carbonitrile] | 0.7 µM | 0.6 µM

Now from value to molecule:

IC50 [1] | IC50 [2] | Structure (SMILES)
0.16 µM | 0.22 µM | N#Cc1cnc2c(Nc3ccc(C(=O)N4CCCC4C(F)(F)F)c(OCC(F)F)n3)cc(NC3CCOCC3)nn12 (centres unmarked) [Example 49, 8-{[6-(2,2-difluoroethoxy)-5-[2-(trifluoromethyl)pyrrolidine-1-carbonyl]pyridin-2-yl]amino}-6-[(oxan-4-yl)amino]imidazo[1,2-b]pyridazine-3-carbonitrile]
0.35 µM | 0.5 µM | CC(=O)N1CCN(c2cccc(Nc3cc(N[C@@H]4CCCC[C@H]4O)nn4c(C#N)cnc34)n2)CC1 [Example 64, 8-{[6-(4-acetylpiperazin-1-yl)pyridin-2-yl]amino}-6-{[(1R,2R)-2-hydroxycyclohexyl]amino}imidazo[1,2-b]pyridazine-3-carbonitrile]
0.66 µM | 0.93 µM | N#Cc1cnc2c(Nc3cccc(N4CCCCCC4=O)n3)cc(N[C@@H]3CCCC[C@H]3O)nn12 [Example 59, 6-{[(1R,2R)-2-hydroxycyclohexyl]amino}-8-{[6-(2-oxoazepan-1-yl)pyridin-2-yl]amino}imidazo[1,2-b]pyridazine-3-carbonitrile]
0.43 µM | 0.58 µM | N#Cc1cnc2c(Nc3ccc(C(=O)N4C[C@H]5CC[C@@H]4C5)c(OCC(F)F)n3)cc(N[C@@H]3CCCC[C@H]3O)nn12 [Example 34, 8-({5-[(1R,4S)-2-azabicyclo[2.2.1]heptane-2-carbonyl]-6-(2,2-difluoroethoxy)pyridin-2-yl}amino)-6-{[(1R,2R)-2-hydroxycyclohexyl]amino}imidazo[1,2-b]pyridazine-3-carbonitrile]
0.31 µM | 0.16 µM | N#Cc1cnc2c(Nc3cccc(NC(=O)C4CC4)n3)cc(NCC3CC3)nn12 [Example 27, N-[6-({3-cyano-6-[(cyclopropylmethyl)amino]imidazo[1,2-b]pyridazin-8-yl}amino)pyridin-2-yl]cyclopropanecarboxamide]
0.11 µM | 0.55 µM | CS(=O)(=O)N1CCN(c2cccc(Nc3cc(N[C@@H]4CCCC[C@H]4O)nn4c(C#N)cnc34)n2)CC1 [Example 63, 6-{[(1R,2R)-2-hydroxycyclohexyl]amino}-8-{[6-(4-methanesulfonylpiperazin-1-yl)pyridin-2-yl]amino}imidazo[1,2-b]pyridazine-3-carbonitrile]
0.65 µM | 0.87 µM | CN(CCc1ccccn1)C(=O)c1ccc(Nc2cc(N[C@@H]3CCCC[C@H]3O)nn3c(C#N)cnc23)nc1N(C)C [Example 31, 6-[(3-cyano-6-{[(1R,2R)-2-hydroxycyclohexyl]amino}imidazo[1,2-b]pyridazin-8-yl)amino]-2-(dimethylamino)-N-methyl-N-[2-(pyridin-2-yl)ethyl]pyridine-3-carboxamide]
0.56 µM | 0.79 µM | N#Cc1cnc2c(Nc3cccc(N4CCN(S(=O)(=O)N5CCOCC5)CC4)n3)cc(N[C@@H]3CCCC[C@H]3O)nn12 [Example 39, 6-{[(1R,2R)-2-hydroxycyclohexyl]amino}-8-({6-[4-(morpholine-4-sulfonyl)piperazin-1-yl]pyridin-2-yl}amino)imidazo[1,2-b]pyridazine-3-carbonitrile]
0.74 µM | 0.26 µM | N#Cc1cnc2c(Nc3ccc(C(=O)NCC4CCCO4)c(OCC(F)F)n3)cc(NC3CCOCC3)nn12 (centres unmarked) [Example 45, 6-({3-cyano-6-[(oxan-4-yl)amino]imidazo[1,2-b]pyridazin-8-yl}amino)-2-(2,2-difluoroethoxy)-N-[(oxolan-2-yl)methyl]pyridine-3-carboxamide]
0.43 µM | 0.38 µM | N#Cc1cnc2c(Nc3cccc(N4CCOCC4=O)n3)cc(N[C@@H]3CCCC[C@H]3O)nn12 [Example 56, 6-{[(1R,2R)-2-hydroxycyclohexyl]amino}-8-{[6-(3-oxomorpholin-4-yl)pyridin-2-yl]amino}imidazo[1,2-b]pyridazine-3-carbonitrile]
0.5 µM | 0.76 µM | C[C@@H]1COC[C@H](C)N1C(=O)c1ccc(Nc2cc(N[C@H]3CCCC[C@@H]3O)nn3c(C#N)cnc23)nc1OCC(F)F [Example 36, 8-{[6-(2,2-difluoroethoxy)-5-[(3R,5S)-3,5-dimethylmorpholine-4-carbonyl]pyridin-2-yl]amino}-6-{[(1S,2S)-2-hydroxycyclohexyl]amino}imidazo[1,2-b]pyridazine-3-carbonitrile]
0.53 µM | 0.62 µM | N#Cc1cnc2c(Nc3cccc(N4CCN(CCO)CC4)n3)cc(N[C@@H]3CCCC[C@H]3O)nn12 [Example 55, 6-{[(1R,2R)-2-hydroxycyclohexyl]amino}-8-({6-[4-(2-hydroxyethyl)piperazin-1-yl]pyridin-2-yl}amino)imidazo[1,2-b]pyridazine-3-carbonitrile]
